Reference: patent publication US20240238195A1, “METHODS AND COMPOSITIONS FOR INHIBITING A NOXIOUS INSULT” (priority 2018, published 2024)
Entries after “also recorded” stand apart in the source; their conditions may differ.

What was measured:
sheep kidneys = experiment: Renal ischaemia-reperfusion injury in sheep (unilateral nephrectomy, 60 min renal ischaemia); format: in vivo; settings: for ischaemic burden (area under curve, serum creatinine and serum urea): 0.5 mg/kg dosed at 24 hours and 4 hours pre-ischaemia, compared to controls and single 24 hr or 4 hr dosing; for inhibition of ischaemia-reperfusion injury, as measured by serum creatinine and urea levels / adverse effects of ischaemia-reperfusion in sheep kidneys (trend towards higher serum creatinine and urea levels): compared to controls
Protocol: (§1) Following the 4 hour injection, day 0 blood samples were taken.
Controls (n=4) received a unilateral nephrectomy and were administered saline at 24 hours and 4 hours prior to surgery.
Another group of sheep (n=1) received the Flavonoid based antioxidant (3′,4′ dihydroxyflavonol) at 6.6 mg/kg of body weight 1 hours prior to surgery.
Sheep were anaesthetised prior to surgery with intravenous sodium thiopentone (15 mg/kg) for endotracheal intubation (cuffed tube size 10). Maintenance of anaesthesia was carried out by means of oxygen/air/isoflurane (1.5-2.0%). Fractional inspired oxygen was altered to maintain PaO2 at approximately 100 mmHg, and ventilation was controlled to maintain PaCO2 at approximately 40 mmHg.
Following general anaesthesia, the right kidney was removed. A flow probe (4 mm) was implanted into the left kidney and the renal hilum (arteries and veins) supplying blood to the kidney were clamped using a vascular clamp for 60 minutes. […] General anaesthesia was then reversed and the sheep were allowed to recover. Renal blood flow was measured, blood samples were taken daily from the sheep over a 1-week period and the level of urea and creatinine was determined. Blood samples were collected into lithium heparin tubes (Microtainer, Becton-Dickinson). Blood samples were centrifuged and aliquots stored at −20° C. till analysis for creatinine and urea by the Clinical Trials Department, Austin Pathology, Heidelberg, Australia. Creatinine and urea in the blood serum samples were measured on a fully automated Roche Cobas 8000 c702 analyser. The kinetic colorimetric assay for creatinine determination is based on the Jaffé method. The kinetic colorimetric assay for urea is based on hydrolyzation of Urea to ammonium catalysed by urease followed by reaction of ammonium with 2-oxoglutarate in the presence of glutamate dehydrogenase and the coenzyme NADH. The rate of decrease in the NADH concentration is directly proportional to the urea concentration in the specimen and is measured photometrically.
As 0.5 mg/kg had been established as an effective dose to inhibit renal ischemia-reperfusion injury, the dosing experiments above were repeated to investigate the effect of multiple dosing. Sheep were subjected to uninephrectomy and 60 min of renal ischaemia followed by reperfusion. Serum creatinine and serum urea levels were measured before Zn pre-treatment (baseline), before ischaemia (Day 0) and for 7 days after reperfusion. […] Data are expressed as mean±SEM values (n=4, except 24 hr only group, n=1).

HIF-2α [1] = experiment: HIF-2α protein expression in ACHN cells (Western blot); format: cell-based, human; settings: 50 μM ZnCl2, Western blot, 4 hours
Excerpt: (§2) Zn stimulated HIF1α in ACHN cells.

HIF-3α [2] = experiment: HIF-3α protein expression in HK-2 cells (Western blot); format: cell-based, human; settings: 50 μM ZnCl2, Western blot
Excerpt: (§3) Zn stimulated HIF1α in HK-2 cells.

HIF-1α [3] = experiment: HIF-1α protein expression in ZnCl2-perfused human kidney tissue (Western Blot)
Protocol: The blood supply to the excised tissue was provided by the renal artery into which the ZnCl2 solution was administered. In an initial study a 25% increase in HIF-1α expression in normal human kidney perfused with Zn compared to saline perfused tissue was observed.

[4] = tested on: sheep left ventricle myocardium; experiment: Myocardial ischaemia-reperfusion in sheep (Evan's blue / TTC staining); format: in vivo
[5] = Tolerability of intravenous ZnCl2 in sheep; format: in vivo; settings: 0.1 to 2 mg/kg of body weight i.v. at 24 hours and 4 hours prior to surgery; preliminary results
Protocol: as §1

HIF-1α [6] = experiment: HIF-1α protein expression in HK-2 cells (Western blot); format: cell-based, human; settings: 50 μM ZnCl2, Western blot, at 4 hours following exposure, vs controls
Excerpt: as §3

pAKT [7] = experiment: Phosphorylation of AKT in ACHN cells (Western blot); format: cell-based, human; settings: ZnCl2 for 4 hours
Excerpt: as §2

HIF-3α [8] = experiment: HIF-3α protein expression in ACHN cells (Western blot); format: cell-based, human; settings: 50 μM ZnCl2, Western blot
Excerpt: as §2

HIF-2α [9] = experiment: HIF-2α protein expression in HK-2 cells (Western blot); format: cell-based, human; settings: 50 μM ZnCl2, Western blot, 4 hours
Excerpt: as §3

pAKT [10] = experiment: Phosphorylation of AKT in HK-2 cells (Western blot); format: cell-based, human; settings: ZnCl2 for 4 hours
Excerpt: as §3

HIF-1α [11] = experiment: HIF-1α protein expression in ACHN cells (Western blot); format: cell-based, human; settings: 50 μM ZnCl2, Western blot, at 4 hours following exposure, vs controls
Excerpt: as §2

rats [12] = settings: cited from earlier work
rats [13] = settings: 191 mg zinc/kg/day as zinc acetate in drinking water for 3 months; cited from earlier work
mice = settings: cited from earlier work
ferrets = settings: 390 mg zinc/kg of body weight per day as zinc oxide in the diet for 3-13 days; cited from earlier work
humans = settings: cited from earlier work
[14] = 0.1 mg/kg of body weight i.v. at 24 hours and 4 hours prior to 60 min ischaemia
[15] = 0.5 mg/kg of body weight i.v. at 24 hours and 4 hours prior to 60 min ischaemia

[Cl-].[Cl-].[Zn+2] [ZnCl2, zinc chloride]
serum creatinine levels when compared to controls (sheep kidneys; [14]): marked reduction
serum urea levels when compared to controls (sheep kidneys; [14]): marked reduction
ischaemic burden (area under curve, serum creatinine and serum urea) (sheep kidneys): significantly (p<0.05) reduced
ischaemic burden (area under curve, serum creatinine and serum urea) (sheep kidneys; listed as zinc): reduced significantly
serum creatinine levels when compared to controls (sheep kidneys; [15]): marked reduction
serum urea levels when compared to controls (sheep kidneys; [15]): marked reduction
reduction of ischaemic burden (AUC values for serum creatinine and serum urea) (sheep kidneys; 0.5 mg/kg zinc, compared to control animals): ~70%
inhibition of ischaemia-reperfusion injury, as measured by serum creatinine and urea levels (sheep kidneys; 1.0 mg/kg of body weight): failed to inhibit
inhibition of ischaemia-reperfusion injury, as measured by serum creatinine and urea levels (sheep kidneys; 2.5 mg/kg of body weight): failed to inhibit
adverse effects of ischaemia-reperfusion in sheep kidneys (trend towards higher serum creatinine and urea levels) (sheep kidneys; 2.5 mg/kg of body weight, listed as ZnCl): appeared to worsen
adverse effects of ischaemia-reperfusion in sheep kidneys (trend towards higher serum creatinine and urea levels) (sheep kidneys; 2.5 mg/kg of body weight, listed as zinc): worsened renal function
inhibition of ischaemia-reperfusion injury, as measured by serum creatinine and urea levels (sheep kidneys; 10.0 mg/kg of body weight): failed to inhibit
adverse effects of ischaemia-reperfusion in sheep kidneys (trend towards higher serum creatinine and urea levels) (sheep kidneys; 10.0 mg/kg of body weight, listed as ZnCl): appeared to worsen
adverse effects of ischaemia-reperfusion in sheep kidneys (trend towards higher serum creatinine and urea levels) (sheep kidneys; 10.0 mg/kg of body weight, listed as zinc): worsened renal function
renal function following ischaemia-reperfusion injury, as determined by serum creatinine and serum urea levels (sheep kidneys; greater than or equal to 1 mg/kg of body weight, intravascular): did not improve renal function
creatinine rise over time (sheep kidneys; two doses of 0.5 mg/kg at 24 and 4 hr prior to ischaemia, compared to single dose at either 24 hr or 4 hr, p<0.05, 0.5 mg/kg): significantly (p<0.05) reduced
HIF-2α protein expression (HIF-2α [1]): increase
HIF-2α protein expression (HIF-2α [1]; listed as zinc): stimulated
HIF-3α protein expression (HIF-3α [2]): not
increase in HIF-1α expression (HIF-1α [3]; 50 μM ZnCl2 perfused via segmental renal artery, compared to saline perfused tissue, initial study): 25%
HIF-1α protein expression in human kidney tissue (HIF-1α [3]; zinc chloride preconditioning (50 μM perfusion), Western Blot): enhanced
infarct in the area of myocardium at risk ([4]; dual doses of 0.5 mg/kg ZnCl2 at 24 hours and 4 hours prior to 1 hour ischemia and 3 hour reperfusion): no histological signs of an infarct
white (infarcted) areas after TTC staining of left ventricle rings ([4]; dual doses of 0.5 mg/kg ZnCl2 at 24 hours and 4 hours prior to myocardial ischaemia, compared to untreated sheep, 0.5 mg/kg): very little white staining; also recorded: Absence of white areas
tolerability / adverse effects [5]: without any adverse effects
HIF-1α protein expression (HIF-1α [6]): increase
HIF-1α protein expression (HIF-1α [6]; listed as Zinc chloride): enhanced
HIF-1α protein expression (HIF-1α [6]; listed as Zn): stimulated
HIF-1α protein expression (HIF-1α [6]; listed as zinc): stimulates
phosphorylation of AKT (pAKT [7]): stimulated phosphorylation
HIF-3α protein expression (HIF-3α [8]): not
HIF-2α protein expression (HIF-2α [9]): increase
HIF-2α protein expression (HIF-2α [9]; listed as zinc): stimulated
phosphorylation of AKT (pAKT [10]): stimulated phosphorylation
HIF-1α protein expression (HIF-1α [11]): increase
HIF-1α protein expression (HIF-1α [11]; listed as Zinc chloride): enhanced
HIF-1α protein expression (HIF-1α [11]; listed as Zn): stimulated
HIF-1α protein expression (HIF-1α [11]; listed as zinc): stimulates

O=c1c(O)c(-c2ccc(O)c(O)c2)oc2ccccc12 [antioxidant, 3′,4′ dihydroxyflavonol, reference compound]
decrease of ischaemic burden (AUC values for serum creatinine and serum urea) (sheep kidneys; antioxidant 6.6 mg/kg of body weight 1 hours prior to surgery (n=1)): 50%

CC(=O)[O-].CC(=O)[O-].[Zn+2] [zinc acetate]
relative lethality (LD50 ranking) (rats [12]): most lethal compound tested
mortality (rats [13]): Mortality has also been observed
relative lethality (LD50 ranking) (mice): most lethal compound

[O]=[Zn] [zinc oxide]
lethality (ferrets dead of ferrets dosed) (ferrets): 3 of 3

zinc gluconate
toxic effects (humans; about 2,000-4,000 mg/day of zinc gluconate): anemia (consistent with zinc-induced copper deficiency), severe nephrosis, nausea, vomiting, dehydration, electrolyte imbalances, dizziness, lethargy and incoordination, epigastric pain and abdominal pain

zinc sulfate
outcome of zinc overdose (humans; oral ingestion of zinc sulfate in large amounts (≥30,000 mg)): can result in death
